Data on 2 molecules can be found in patent US20210292851A1, “METHOD OF MONITORING EFFECTIVENESS OF IMMUNOTHERAPY OF CANCER PATIENTS” (Roche Sequencing Solutions, Inc., priority 2018, published 2021).

Test [1] relates to NSCLC patients. As to the kind of experiment: Same Phase 3 trial with serial ctDNA monitoring: overall survival by maxMMPM at C3D1. It counts as in vivo, human. On the procedure: In this example, the patients' samples from the same Phase 3 trial as described in Example 1 were collected processed an analyzed essentially as described in Example 1. However, the samples were collected serially during the administration of therapy.
Multiple metrics of circulating tumor DNA (ctDNA) were assessed for association with OS.
Plasma from 94 patients taken at baseline and at subsequent cycles of therapy every three weeks (C2D1, C3D1, and C4D1) were analyzed retrospectively for ctDNA with the AVENIO ctDNA Surveillance Kit (Roche Sequencing Solutions, Pleasanton, Calif.) Mutations detected in matched PBMC DNA were excluded in correlation analyses with clinical outcomes. ctDNA was measured by allele frequency (AF) or mutant molecules per milliliter (MMPM), and summarized across multiple mutations within a sample by median, mean or maximum. Concordance between these per-sample metrics and PFS/OS were assessed using C index, which is equivalent to AUC under a Receiver Operating Characteristic (ROC) curve.
Specifically, samples were collected and assessed at drug administration cycle 1, 2, or 3 or 4 taken in each case, on day 1 (C1D1, C2D1, C3D1, and C4D1). […] Using the max MMPM at C3D1, the patients were dichotomized at a median for the entire cohort of 8.75 maximal MMPM. […] In the docetaxel arm, the 1-year survival rate among MMPM low vs MMPM high patients was 0.7 vs 0.07. Because mutation metrics obtained from overall ctDNA levels were associated with OS in metastatic NSCLC, ctDNA is a promising non-invasive blood based biomarker in the metastatic setting of NSCLC.

Test [2] has as its system NSCLC patients. Conditions: ≥2L NSCLC patients; previously demonstrated by the study; cited from earlier work.
The subject of a further test is advanced NSCLC patients. Nature of the test: Phase 3 randomized trial, Atezolizumab vs docetaxel in second line advanced NSCLC: progression-free survival by baseline ctDNA mutation metric. The settings on record: for Events/Total number of patients: PFS events. It counts as in vivo, human. From the text:
In a Phase 3, open-label, multicenter randomized controlled trial, NSCLC patients received either Atezolizumab or docetaxel in a second line setting of advanced NSCLC. Blood plasma samples were obtained from 102 patients prior to start of second line therapy. The AVENIO® ctDNA kit, Surveillance Panel (Roche Sequencing Solutions, Pleasanton, Calif.) was used to assess the number of mutations in patient samples. Cell-free DNA (cfDNA) from the patients was isolated and analyzed according to the manufacturer's instructions of the AVENIO® ctDNA Kit. The metrics assessed included the numbers of variants and maximum allele frequency (MaxAF, the highest allele frequency of a single mutation among all mutations detected within a single sample).
The “number of mutations” metric was assessed on the population level and patients were assessed for progression-free survival (PFS) and overall survival (OS). (FIGS. 1 and 2, Tables 2 and 3) Using median or 75th percentile cut-off, patients treated with Atezolizumab and with number of mutations greater or equal median or 75th percentile have longer progression survival compared to that of chemotherapy, with a HR of 0.67 or 0.49, respectively. Meanwhile, Atezolizumab didn't show more benefit vs chemotherapy in patients with number of mutations fewer than the median or 75th percentile. The HR is 1.12 and 1.05 for <median or <75 percentile, respectively.
The MaxAF detected in the blood samples was also used to assess its relationship with progression free survival and overall survival. Using median cut-off, patients with MaxAF greater than the median have longer progression free survival when treated with Atezolizumab compared to chemotherapy, with a HR of 0.56 (FIG. 3, Table 4). In patients with MaxAF lesser the median, no benefit was observed on treatment with Atezolizumab vs chemotherapy (HR of 1.45).

Where [3] appears, read: MMPM high patients (max MMPM at C3D1, dichotomized at median 8.75).
Where [4] appears, read: MMPM low patients (max MMPM at C3D1, dichotomized at median 8.75).
The mark [5] stands for this setting: number of detected variants <75th percentile (<12).
[6] abbreviates: number of detected variants <Median (<6.5).
Where [7] appears, read: number of detected variants ≥75th percentile (≥12).
The mark [8] stands for this setting: number of detected variants ≥Median (≥6.5).
Where [9] appears, read: patients with MaxAF <Median (<44.58) at baseline.
Setting [10] is: patients with MaxAF ≥Median (≥44.58) at baseline.
The mark [11] stands for this setting: patients with number of detected variants <75th percentile (<12) at baseline.
[12] abbreviates: patients with number of detected variants <Median (<6.5) at baseline.
Where [13] appears, read: patients with number of detected variants ≥75th percentile (≥12) at baseline.
[14] abbreviates: patients with number of detected variants ≥Median (≥6.5) at baseline.

Take atezolizumab: the “1-year survival rate (OS)” value in the test with NSCLC patients [1] (setting [3]) was 0.43; in the test with NSCLC patients [1] (setting [4]), 0.81. For the same molecule, the “OS benefit, atezolizumab vs docetaxel” value in the test on NSCLC patients [2] was “clinically significant OS benefit”. Besides, the “Hazard Ratio (HR), progression free survival, Atezolizumab vs docetaxel” value in the test with advanced NSCLC patients (MaxAF <Median (<44.58)) came to 1.45; in the test on advanced NSCLC patients (MaxAF ≥Median (≥44.58)), 0.56; in the test on advanced NSCLC patients (setting [5]) it was 1.05; in the test on advanced NSCLC patients (setting [6]), 1.12; in the test on advanced NSCLC patients (setting [7]), 0.49; with advanced NSCLC patients (setting [8]), 0.67. Also, the “Events/Total number of patients” value is listed as 22/23 in the test on advanced NSCLC patients (MaxAF <Median (<44.58)); 24/28 with advanced NSCLC patients (MaxAF ≥Median (≥44.58)); 35/38 with advanced NSCLC patients (setting [5]); 23/24 in the test on advanced NSCLC patients (setting [6]); 11/13 in the test on advanced NSCLC patients (setting [7]); 23/27 in the test on advanced NSCLC patients (setting [8]). The “Median Progression Free Survival” value in the test on advanced NSCLC patients (setting [9]) is reported as 2.6; in the test on advanced NSCLC patients (setting [10]) it was 4.99; in the test with advanced NSCLC patients (setting [11]) it was 2.71; with advanced NSCLC patients (setting [12]), 2.74; with advanced NSCLC patients (setting [13]) it was 5.85; with advanced NSCLC patients (setting [14]) it was 2.79.
Turning to `CC(=O)O[C@@]12CO[C@@H]1C[C@H](O)[C@@]1(C)C(=O)[C@H](O)C3=C(C)[C@@H](OC(=O)[C@H](O)[C@@H](NC(=O)OC(C)(C)C)c4ccccc4)C[C@@](O)([C@@H](OC(=O)c4ccccc4)[C@H]21)C3(C)C` [Docetaxel, docetaxel], the “1-year survival rate (OS)” value in the test on NSCLC patients [1] (setting [3]) turned out to be 0.07; in the test with NSCLC patients [1] (setting [4]), 0.7. Besides, the “Events/Total number of patients” value is reported as 27/28 in the test on advanced NSCLC patients (MaxAF <Median (<44.58)); 23/23 in the test with advanced NSCLC patients (MaxAF ≥Median (≥44.58)); 37/37 in the test on advanced NSCLC patients (setting [5]); 27/27 in the test with advanced NSCLC patients (setting [6]); 13/14 in the test with advanced NSCLC patients (setting [7]); 23/24 in the test with advanced NSCLC patients (setting [8]). Besides, the “Median Progression Free Survival” value with advanced NSCLC patients (setting [9]) is on record as 4.09; in the test on advanced NSCLC patients (setting [10]) it was 3.09; in the test with advanced NSCLC patients (setting [11]) it was 4.07; with advanced NSCLC patients (setting [12]), 3.98; in the test on advanced NSCLC patients (setting [13]), 2.41; in the test on advanced NSCLC patients (setting [14]) it was 2.94.
